Columns and labels:
[1] = test system: mouse intestinal organoids; settings: ENR media supplemented with factor; based on published data (Yin et al); cited from earlier work
[2] = test system: mouse intestinal organoids; assay: mouse small intestinal organoid differentiation, lineage markers by Q-PCR; assay type: cell-based; settings: ENR media, Q-PCR after 5 days of treatment, FIG. 2
Excerpt: Cryopreserved mouse intestinal organoids derived from small intestine were obtained from Stem Cell Technologies. The organoids were thawed and propagated in Intesticult Growth Medium (Mouse) (purchased from Stem Cell Technologies) following the company's instructions. Briefly, ˜100 organoid fragments/well are embedded in Matrigel domes in 24-well plates and growth media is renewed every 2-3 days. The organoids are passaged every 5-6 days in 1:4 ratio. To assess the potential of the predicted perturbations to induce the enteroendocrine cell lineage during organoid differentiation, we established an in vitro assay to induce the various intestinal lineages (enterocytes, goblet cells, Paneth cells, enteroendocrine cells) based on published data (Yin et al, Nat Methods. 2014 January; 11(1):106-12). Briefly, organoid fragments are embedded in Matrigel and grow in custom-made media in the presence of EGF, Noggin, Rspondin (ENR) supplemented with the indicated factors (Table 4) that are known to induce markers of the various intestinal lineages. The expression of markers and the induction of the various cell lineages was assessed by Q-PCRs after 5 days of treatments (FIG. 2). Further characterization of the organoids will be performed by immunofluorescence staining and flow cytometry. […]

| SMILES | Cell lineage (factors known to induce markers of intestinal lineages) [1] | expression of chromogranin A and chromogranin B genes, markers of enteroendocrine cells [2] |
| --- | --- | --- |
| C[C@H](NC(=O)Cc1cc(F)cc(F)c1)C(=O)N[C@H](C(=O)OC(C)(C)C)c1ccccc1 [DAPT] | Enteroendocrine Cells, Paneth | induces the expression of chromogranin A and chromogranin B genes |
| Cc1ccc2nc(NC(=O)CSc3nc4c(c(=O)n3-c3ccccc3)SCC4)sc2c1 [IWP2] | Enterocytes, Enteroendocrine Cells | – |
